Experimental data taken from ChEMBL document CHEMBL1158623, “In silico characterization of cytisinoids docked into an acetylcholine binding protein” (Bioorg Med Chem Lett, 2010).

Target: Neuronal acetylcholine receptor; alpha4/beta2 (Rattus norvegicus, UniProt P09483+P12390)
Test: Displacement of [3H]epibatidine from rat alpha4beta2 nAChR
Type: protein-complex assay

Chain of Neuronal acetylcholine receptor; alpha4/beta2 (P09483 whole entry): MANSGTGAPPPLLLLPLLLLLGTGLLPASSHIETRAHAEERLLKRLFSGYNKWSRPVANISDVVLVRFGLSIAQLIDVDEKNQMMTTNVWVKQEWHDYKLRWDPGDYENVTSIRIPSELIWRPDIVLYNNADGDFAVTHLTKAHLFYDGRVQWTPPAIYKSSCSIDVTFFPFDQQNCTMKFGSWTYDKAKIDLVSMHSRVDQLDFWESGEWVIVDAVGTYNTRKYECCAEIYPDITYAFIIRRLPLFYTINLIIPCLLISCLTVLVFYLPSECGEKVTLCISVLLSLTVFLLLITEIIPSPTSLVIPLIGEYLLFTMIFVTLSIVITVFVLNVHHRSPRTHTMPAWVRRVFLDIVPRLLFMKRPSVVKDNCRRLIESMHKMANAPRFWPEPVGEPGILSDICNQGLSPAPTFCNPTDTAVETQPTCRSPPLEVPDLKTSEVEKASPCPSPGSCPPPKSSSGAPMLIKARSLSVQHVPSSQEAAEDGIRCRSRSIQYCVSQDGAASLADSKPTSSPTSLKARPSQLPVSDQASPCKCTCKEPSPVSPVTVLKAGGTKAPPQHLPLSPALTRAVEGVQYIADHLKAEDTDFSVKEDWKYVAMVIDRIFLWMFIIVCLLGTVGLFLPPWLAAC
Chain of Neuronal acetylcholine receptor; alpha4/beta2 (P12390 whole entry): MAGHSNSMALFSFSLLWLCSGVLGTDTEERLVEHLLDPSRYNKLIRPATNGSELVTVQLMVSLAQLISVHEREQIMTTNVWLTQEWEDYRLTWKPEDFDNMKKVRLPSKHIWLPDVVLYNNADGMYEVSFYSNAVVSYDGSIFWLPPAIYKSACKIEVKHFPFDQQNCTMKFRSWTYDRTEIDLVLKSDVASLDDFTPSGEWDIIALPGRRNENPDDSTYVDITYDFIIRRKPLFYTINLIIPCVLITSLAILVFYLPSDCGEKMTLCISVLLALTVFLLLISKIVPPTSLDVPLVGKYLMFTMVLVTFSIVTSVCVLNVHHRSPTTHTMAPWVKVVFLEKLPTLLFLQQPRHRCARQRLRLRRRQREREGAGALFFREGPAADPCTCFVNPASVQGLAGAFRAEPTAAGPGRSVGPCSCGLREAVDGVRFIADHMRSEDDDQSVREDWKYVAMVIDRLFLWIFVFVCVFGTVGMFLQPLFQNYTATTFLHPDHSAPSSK

| SMILES | IC50 [nM] |
| --- | --- |
| O=c1c(Br)ccc2n1C[C@@H]1CNC[C@H]2C1 | 0.309 |
| O=c1c(Br)cc(Br)c2n1C[C@@H]1CNC[C@H]2C1 | 372 |
| O=c1ccc(Br)c2n1C[C@@H]1CNC[C@H]2C1 | 457 |
| O=c1c(I)ccc2n1C[C@@H]1CNC[C@H]2C1 | 0.245 |
| CN1C[C@@H]2C[C@H](C1)c1ccc(Br)c(=O)n1C2 | 102 |
| O=c1cccc2n1C[C@@H]1CNC[C@H]2C1 [CYTISINICLINE] | 69.2 |
| CN1C[C@@H]2C[C@H](C1)c1cccc(=O)n1C2 | 112 |
